According to US9328134B2, “Carbohydrate phosphonate derivatives as modulators of glycosylation” (AMGEN INC., priority 2013, dated 2016):

Assays:
[1] = tested on: cell surface protein fucosylation in CS-9 CHO cells; test: Cell Surface Protein Fucosylation Assay (FACS with FITC-LCA); assay type: cell-based, Chinese hamster; settings: Cricetulus griseus, 72 h, 3 days
Method: Cell Surface Protein Fucosylation Assay
(§1) The effect of the example compounds on cell surface protein fucosylation was measured in CS-9 CHO cells. A range of amounts of example compound was added to produce various concentrations (100 μM-0.005 uM). These were added to cells grown in batch production CHO cell media in Costar 96-well clear round bottom polypropylene plates and incubated at 37° C. in the presence of 5% CO2. Commercially available standard batch production serum free CHO media such as CD OptiCHO (Invitrogen), Power CHO (Lonza), or ExCell 325 PF CHO (commercially available from Sigma Aldrich) may be used in accordance with the assay. After 3 days, cells were analyzed by fluorescence-activated cell sorting (FACS) using FITC-Lens culinaris agglutinin (FITC-LCA, Vector Laboratories Cat#FL-1041) according to the following procedure. After 3 days, 50 uL of FITC-LCA (3 ug/mL) was added to columns 1-11 and plates were incubated for 30 minutes. Plates were then centrifuged briefly (2,000 rpm), and the medium was aspirated away. Cells were washed three times with PBS with 1% BSA, resuspended in the same buffer, and analyzed on the BD LSRii instrument. Cells were simultaneously assayed for viability using propidium iodide.
The following table includes IC50 values obtained using the procedures set forth above for the Example compounds described herein.

[2] = Cell viability by propidium iodide, run with the fucosylation assay; assay type: cell-based, Chinese hamster; settings: Chinese hamster, 100 μM, CS-9 CHO cells, read-out: Cell Viability max activity at 100 μM
Method: as §1

CS-9 CHO cells [3] = test: as above; assay type: cell-based, Chinese hamster; settings: Cricetulus griseus, 72 h, 3 days
Method: as §1

[4] = tested on: CHO cells expressing anti-TRAIL IgG1 antibody; test: Production cultures to generate antibodies for glycan analysis (HILIC); assay type: cell-based, Chinese hamster
Method: Production Cultures to Generate Antibodies for Glycan Analysis
CHO cells expressing anti-TRAIL IgG1 antibody were seeded into serum-free growth medium in deep 24-well plates via 1:5 dilution. Any medium suitable for growth of CHO cells (i.e. PowerCHO by Lonza or OptiCHO by Invitrogen) can be used. The fucosylation inhibitor Example 1 compound was added to the cultures at inoculation at 5, 10, 20, 40, 80, 160 and 320 uM via 1:1000 dilution of stock solutions in DMSO. The cultures were placed into a shaking incubator (50 mm orbital diameter, 36° C., 5% CO2, 220 rpm). The growth and viability of the cultures were monitored throughout the length of the production assay. The cells were fed with feed medium and an amino acid supplement on days 3, 6 and 8. Cultures were harvested on day 10 via centrifugation and spent medium supernatants were submitted for titer analysis and protein A purification. Glycan analysis of purified antibodies was conducted via the HILIC assay.
To test whether daily doses of the Example 1 fucosylation inhibitor would result in higher inhibition profile, CHO cells expressing anti TRAIL IgG1 antibody were seeded into serum-free growth medium in deep 24-well plates via 1:5 dilution. The fucosylation inhibitor compound Example 1 (FIG. 2) and compound Example 3 (FIG. 3) were added to the cultures on a daily basis at 5, 10, 20, 40, 60, 80, and 100 uM levels via 1:1000 dilution of stock solutions in DMSO. The cultures were placed into a shaking incubator (50 mm orbital diameter, 36° C., 5% CO2, 220 rpm). The growth and viability of cultures were monitored throughout the length of the production assay. Starting on day 3, cells were centrifuged at 1000 rpm for 5 minutes, a fraction of the spent medium was removed and cells were replenished with the equivalent volume of production medium. Cultures were harvested on day 10 via a 10 minute centrifugation at 1000 rpm. Spent medium fractions collected during the course of the experiment were submitted for titer analysis. Spent medium fractions corresponding to select time-points were also purified on protein A. Glycan analysis of the purified antibodies is shown in FIGS. 2 and 3.
The PNGase F (New England Biolabs) enzymatically-released N-linked glycans from protein-purified anti-TRAIL IgG1 antibody were labeled with 2-aminobenzoic acid (2-AA) and separated by HILIC (hydrophilic interaction liquid chromatography) in-line with a fluorescence detector. The separation was performed using a Waters Acquity UPLC (Waters, Milford, Mass.). In-line MS, using an ion trap mass spectrometer (LTQ; Thermo Scientific, Waltham, Mass.) in positive mode, was incorporated to accommodate mass determination of species. Glycans were injected and bound to the column in high organic conditions and were then eluted with an increasing gradient of an aqueous ammonium formate buffer. Fast separation times were achieved using a […] small particle column format (Acquity UPLC BEH Glycan Column, 2.1×100 mm; Waters, Milford, Mass.). Total runtime including column re-equilibration for the MS compatible separation was 30 minutes. Glycan from cells treated with 320 uM Example 1 compound was 64% fucosylated vs. 77% for DMSO control, and contained 13% high mannose vs. 12% for DMSO control.

[5] = tested on: cell surface protein high mannose in CS-9 CHO cells; test: Assay for Cell Surface Protein High Mannose (FACS with FITC-labeled Concanavilin A); assay type: cell-based, Chinese hamster; settings: Cricetulus griseus, 72 h, 3 days
Method: Assay for Cell Surface Protein High Mannose
as §1, with “high mannose” for “fucosylation”, “FITC-labeled Concanavilin A” for “FITC-Lens culinaris agglutinin (FITC-LCA, Vector Laboratories Cat#FL-1041)”

[6] = Cell viability by propidium iodide, run with the high mannose assay; assay type: cell-based, Chinese hamster; settings: Chinese hamster, 100 μM, CS-9 CHO cells, read-out: Cell Viability max activity at 100 μM
Method: as §1, with “high mannose” for “fucosylation”, “FITC-labeled Concanavilin A” for “FITC-Lens culinaris agglutinin (FITC-LCA, Vector Laboratories Cat#FL-1041)”

CS-9 CHO cells [7] = test: as above; assay type: cell-based, Chinese hamster; settings: Cricetulus griseus, 72 h, 3 days
Method: as §1, with “high mannose” for “fucosylation”, “FITC-labeled Concanavilin A” for “FITC-Lens culinaris agglutinin (FITC-LCA, Vector Laboratories Cat#FL-1041)”

[8] = Stability of inhibitor in the culture medium; assay type: physicochemical; settings: cell culture medium

CC(=O)OCOP(=O)(C[C@H]1O[C@@H](C)[C@@H](OC(C)=O)[C@@H](OC(C)=O)[C@@H]1OC(C)=O)OCOC(C)=O [Example 2, (2S,3S,4R,5R,6S)-2-((bis(acetoxymethoxy)phosphoryl)methyl)-6-methyltetrahydro-2H-pyran-3,4,5-triyl triacetate]
IC50 [1]: 44 µM
viability at 3 days, 100 µM [2]: 103%
IC50 (CS-9 CHO cells [3]): > 100 µM

CC(=O)O[C@H]1[C@H](OC(C)=O)[C@H](CP(=O)(OCOC(=O)C(C)(C)C)OCOC(=O)C(C)(C)C)O[C@@H](C(F)(F)F)[C@H]1OC(C)=O [Example 3, (2R,3S,4R,5S,6R)-2-((bis((pivaloyloxy)-methoxy)phosphoryl)methyl)-6-(trifluoromethyl)tetrahydro-2H-pyran-3,4,5-triyl triacetate]
IC50 [1]: 7 µM
viability at 3 days, 100 µM [2]: 90%
IC50 (CS-9 CHO cells [3]): > 100 µM
Incorporation of inhibitor into antibody glycan ([4]; added to cell culture media on a daily basis, 5-100 uM): some incorporation of part of the inhibitor

CC(=O)OC[C@H]1O[C@H](CP(=O)(OCOC(=O)C(C)(C)C)OCOC(=O)C(C)(C)C)[C@@H](OC(C)=O)[C@@H](OC(C)=O)[C@@H]1OC(C)=O [Example 4, (2R,3R,4S,5S,6S)-2-(acetoxymethyl)-6-((bis((pivaloyloxy)methoxy)phosphoryl)methyl)tetrahydro-2H-pyran-3,4,5-triyl triacetate]
IC50 [5]: 33.1 µM
viability at 3 days, 100 µM [6]: 92%
IC50 (CS-9 CHO cells [7]): > 100 µM

CC(=O)N[C@@H]1[C@@H](OC(C)=O)[C@H](OC(C)=O)[C@@H](COC(C)=O)O[C@@H]1CP(=O)(OCOC(=O)C(C)(C)C)OCOC(=O)C(C)(C)C [Example 5, (((((2S,3R,4R,5S,6R)-3-acetamido-4,5-diacetoxy-6-(acetoxymethyl)tetrahydro-2H-pyran-2-yl)methyl)phosphoryl)bis(oxy))bis(methylene)bis(2,2-dimethylpropanoate)]
IC50 [5]: 3.4 µM
viability at 3 days, 100 µM [6]: 88%
IC50 (CS-9 CHO cells [7]): > 100 µM

CC(=O)O[C@@H]1[C@H](OC(C)=O)[C@H](C)O[C@H](CP(=O)(OCOC(=O)C(C)(C)C)OCOC(=O)C(C)(C)C)[C@H]1OC(C)=O [Example 1, (2S,3S,4R,5R,6S)-2-((bis((pivaloyloxy)methoxy)phosphoryl)methyl)-6-methyltetrahydro-2H-pyran-3,4,5-triyl triacetate]
IC50 [1]: 21 µM
viability at 3 days, 100 µM [2]: 94%
IC50 (CS-9 CHO cells [3]): > 100 µM
Incorporation of inhibitor molecule into the glycan ([4]; 320 uM, HILIC with in-line MS): No trace of the inhibitor molecule was detectable in the glycan
Glycan high mannose content ([4]; 320 uM, anti-TRAIL IgG1 glycan, HILIC, DMSO control 12%): 13%
Glycan fucosylated ([4]; 320 uM, anti-TRAIL IgG1 glycan, HILIC, DMSO control 77%): 64%
inhibition at 320 µM ([4]; Cricetulus griseus, CHO, 240 h, 320 uM added at inoculation, anti-TRAIL IgG1, harvest day 10, read-out: Maximum inhibition of fucosylation (afucosylation)): ~10%
Stability of inhibitor in the medium [8]: limited stability
